We go through two compounds from article PMC5742070 (Xenobiotica; the fate of foreign compounds in biological …, 2020).

By Papp is commonly meant the rate of passage across a membrane or cell layer, normalised by area and donor concentration. The Km is the concentration of substrate that gives half-maximal velocity.

One data set relates to Caco-2 cells. The conditions noted are these: ref Gertz et al., 2013; cited from earlier work.
The subject of data set [1] is CYP3A. The conditions noted are these: substrate related parameter; ref Kirby et al., 2011; cited from earlier work.
For data set [2], the system named is CYP3A. In words: MDZ kinetics used for initial estimates. The format is biochemical, rat.
The conditions of data set [3]: substrate related parameter; ref Kotegawa et al., 2002, Matsuda et al., 2012; cited from earlier work.

As to `CC[C@H]1OC(=O)[C@H](C)[C@@H](O[C@H]2C[C@@](C)(OC)[C@@H](O)[C@H](C)O2)[C@H](C)[C@@H](O[C@@H]2O[C@H](C)C[C@H](N(C)C)[C@H]2O)[C@](C)(O)C[C@@H](C)C(=O)[C@H](C)[C@@H](O)[C@]1(C)O` [ERY, erythromycin], the Papp in the data set with Caco-2 cells is listed as 4.4 nm/s.
For `Cc1ncc2n1-c1ccc(Cl)cc1C(c1ccccc1F)=NC2` [MDZ, midazolam], in the data set on CYP3A [1], the “fm (fraction metabolized by CYP3A)” value is 0.93. Besides, the “kcat (k3)” value with CYP3A [2] (initial estimate from experimental samples without inhibitor) is “approx. 10 min^−1”. In the data set on CYP3A [2] (rat, liver microsomes), the Km was 10 µM. In the data set with Caco-2 cells, the Papp is listed as 324 nm/s. The “Fg (fraction escaping gut)” value in data set [3] is 0.75.
